Measurements as given in ChEMBL document CHEMBL1201862, “PubChem BioAssay data set” (2004).
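Following 48 hours of exposure in 96-well plates, responses at five concentrations were used to interpolate endpoints linearly. GI50 marks 50% less growth.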 Calls of active or inactive are those of the source. Rule as the data show it: active = GI50 up to about 1.1 µM and inactive = higher.

Experiments:
Test in all cases: NCI tumour cell line growth inhibition, 48 h
A498 = test system: A498
TK-10 = test system: TK-10
CCRF-CEM = test system: CCRF-CEM
HCC 2998 = test system: HCC 2998
786-0 = test system: 786-0
A549 = test system: A549
SK-MEL-28 = test system: SK-MEL-28
IGROV-1 = test system: IGROV-1
SNB-19 = test system: SNB-19
SR = test system: SR
SF-295 = test system: SF-295
OVCAR-4 = test system: OVCAR-4
MOLT-4 = test system: MOLT-4
UACC-257 = test system: UACC-257
HL-60 = test system: HL-60
SK-MEL-5 = test system: SK-MEL-5
M14 = test system: M14

Measured: GI50

CCOC(=O)C1(C)C2=CC=C(O2)C(C)(C)C2=CC=C(O2)C(C)(C)C2=CC=C(O2)C(C)(C)C2=CC=C1O2
inactive: A498 > 100 µM | TK-10 > 100 µM | CCRF-CEM 64.3 µM | HCC 2998 > 100 µM | 786-0 > 100 µM | A549 42.6 µM | SK-MEL-28 > 100 µM | IGROV-1 > 100 µM | SNB-19 > 100 µM | SR 68.1 µM | SF-295 > 100 µM | OVCAR-4 3.44 µM | MOLT-4 53.5 µM | UACC-257 > 100 µM | HL-60 55.3 µM

CCC(=O)N/N=C(\C=C\c1cccc(O)c1)c1sc(Nc2ccc(C)cc2[N+](=O)[O-])nc1C
inactive: A498 > 100 µM | TK-10 > 100 µM | CCRF-CEM 99.1 µM | HCC 2998 > 100 µM | SK-MEL-5 > 100 µM | 786-0 > 100 µM | A549 > 100 µM | SK-MEL-28 > 100 µM | IGROV-1 > 100 µM | SNB-19 > 100 µM | SR 73.8 µM | SF-295 48.4 µM | M14 > 100 µM | OVCAR-4 49 µM | MOLT-4 > 100 µM | UACC-257 > 100 µM | HL-60 43.4 µM

CCOc1ccc(/N=C(/NC(=O)c2ccccc2)SC)cc1
inactive: A498 > 100 µM | TK-10 > 100 µM | CCRF-CEM 87.1 µM | HCC 2998 > 100 µM | SK-MEL-5 > 100 µM | 786-0 > 100 µM | A549 > 100 µM | SK-MEL-28 > 100 µM | IGROV-1 > 100 µM | SNB-19 > 100 µM | SR > 100 µM | SF-295 > 100 µM | M14 > 100 µM | OVCAR-4 > 100 µM | MOLT-4 > 100 µM | UACC-257 > 100 µM | HL-60 > 100 µM

Oc1cc(C2OCCCO2)cc(O)c1O
inactive: A498 > 100 µM | TK-10 > 100 µM | CCRF-CEM > 100 µM | HCC 2998 > 100 µM | SK-MEL-5 > 100 µM | 786-0 > 100 µM | A549 > 100 µM | SK-MEL-28 > 100 µM | IGROV-1 > 100 µM | SNB-19 > 100 µM | SR > 100 µM | SF-295 > 100 µM | M14 > 100 µM | OVCAR-4 > 100 µM | MOLT-4 > 100 µM | UACC-257 > 100 µM | HL-60 > 100 µM

O=c1cnn2c(n1)sc1ccc3ccccc3c12
inactive: TK-10 > 100 µM | CCRF-CEM 63.5 µM | HCC 2998 > 100 µM | SK-MEL-5 > 100 µM | 786-0 > 100 µM | A549 65.6 µM | SK-MEL-28 > 100 µM | IGROV-1 > 100 µM | SNB-19 > 100 µM | SR 59.4 µM | SF-295 > 100 µM | M14 > 100 µM | OVCAR-4 > 100 µM | MOLT-4 30.1 µM | UACC-257 > 100 µM | HL-60 83.9 µM

Oc1cc(-c2ccccc2)c2ccccc2n1
inactive: TK-10 38.6 µM | CCRF-CEM 60.8 µM | SK-MEL-5 16.6 µM | 786-0 > 100 µM | A549 34.4 µM | SK-MEL-28 37.3 µM | IGROV-1 23.9 µM | SR 45.5 µM | SF-295 87.9 µM | M14 41.8 µM | OVCAR-4 73.6 µM | MOLT-4 37.8 µM | UACC-257 61 µM | HL-60 88.1 µM

CCOC(=O)NN(C(=O)OCC)C(C(=O)c1ccc(Cl)cc1)=C1NCCN1
inactive: A498 > 100 µM | TK-10 > 100 µM | CCRF-CEM > 100 µM | HCC 2998 > 100 µM | SK-MEL-5 > 100 µM | 786-0 > 100 µM | A549 > 100 µM | SK-MEL-28 > 100 µM | IGROV-1 > 100 µM | SNB-19 > 100 µM | SR > 100 µM | SF-295 > 100 µM | M14 > 100 µM | OVCAR-4 > 100 µM | MOLT-4 > 100 µM | UACC-257 > 100 µM | HL-60 > 100 µM

COc1cc(/C=C\c2ccccn2)cc(OC)c1OC
inactive: A498 78.5 µM | TK-10 > 100 µM | CCRF-CEM > 100 µM | SK-MEL-5 57.5 µM | 786-0 > 100 µM | A549 85.7 µM | SK-MEL-28 > 100 µM | IGROV-1 > 100 µM | SNB-19 > 100 µM | SF-295 > 100 µM | M14 55.6 µM | OVCAR-4 > 100 µM | MOLT-4 61.9 µM | UACC-257 > 100 µM | HL-60 31 µM

O=C(NC1C=Nc2ccccc2NC1=O)c1ccccc1Cl (configuration not stated)
inactive: A498 28.8 µM | TK-10 46.2 µM | CCRF-CEM 14 µM | HCC 2998 56.4 µM | SK-MEL-5 45.8 µM | 786-0 56 µM | A549 48 µM | SK-MEL-28 > 100 µM | IGROV-1 36.8 µM | SNB-19 > 100 µM | SR 31.8 µM | SF-295 57.1 µM | M14 80.5 µM | OVCAR-4 33.3 µM | MOLT-4 12.6 µM | UACC-257 38.5 µM | HL-60 13.5 µM

O=C(O)c1ccc(S(=O)(=O)c2ccccc2)c([N+](=O)[O-])c1
inactive: A498 > 100 µM | TK-10 > 100 µM | CCRF-CEM > 100 µM | HCC 2998 > 100 µM | SK-MEL-5 > 100 µM | 786-0 > 100 µM | A549 > 100 µM | SK-MEL-28 > 100 µM | IGROV-1 > 100 µM | SNB-19 > 100 µM | SR > 100 µM | SF-295 > 100 µM | M14 > 100 µM | OVCAR-4 > 100 µM | MOLT-4 > 100 µM | UACC-257 > 100 µM | HL-60 > 100 µM

O=C(CC(=O)Nc1ccc(Cl)cc1)NNCC(=O)Nc1nc(-c2ccccc2)cs1
inactive: TK-10 > 100 µM | CCRF-CEM > 100 µM | HCC 2998 > 100 µM | SK-MEL-5 > 100 µM | 786-0 > 100 µM | A549 > 100 µM | SK-MEL-28 > 100 µM | IGROV-1 > 100 µM | SNB-19 > 100 µM | SF-295 > 100 µM | M14 > 100 µM | OVCAR-4 > 100 µM | MOLT-4 > 100 µM | HL-60 > 100 µM

C[Si](C)(C)C(CCCCSc1ccccc1)(Sc1ccccc1)Sc1ccccc1
inactive: A498 > 100 µM | TK-10 > 100 µM | CCRF-CEM > 100 µM | HCC 2998 > 100 µM | SK-MEL-5 > 100 µM | 786-0 > 100 µM | A549 > 100 µM | SK-MEL-28 > 100 µM | SNB-19 > 100 µM | SR > 100 µM | SF-295 > 100 µM | OVCAR-4 > 100 µM | MOLT-4 > 100 µM | UACC-257 > 100 µM | HL-60 > 100 µM

Cc1ccc(C)c2sc3cc(=O)ccc-3nc12
inactive: TK-10 26.3 µM | CCRF-CEM 14.9 µM | HCC 2998 44.1 µM | SK-MEL-5 16.5 µM | 786-0 39.2 µM | A549 41.2 µM | SK-MEL-28 43.4 µM | IGROV-1 82 µM | SNB-19 91.6 µM | SR 26.4 µM | SF-295 39.1 µM | M14 18.2 µM | OVCAR-4 21.1 µM | MOLT-4 15 µM | UACC-257 35.1 µM | HL-60 10.5 µM

CCOC(=O)NC(=O)c1cn(-c2ccc(CCOC(=O)NCCCCCCNC(=O)OCCc3ccc(-n4c(=O)[nH]cc(C(=O)NC(=O)OCC)c4=O)cc3)cc2)c(=O)[nH]c1=O
inactive: A498 > 80.4 µM | TK-10 58.3 µM | CCRF-CEM 32.6 µM | HCC 2998 > 100 µM | SK-MEL-5 78.7 µM | 786-0 48.5 µM | A549 > 100 µM | SK-MEL-28 > 100 µM | IGROV-1 75.2 µM | SNB-19 23.2 µM | SR > 62.8 µM | SF-295 31.6 µM | M14 > 100 µM | OVCAR-4 > 100 µM | MOLT-4 58.1 µM | UACC-257 > 72.8 µM | HL-60 > 100 µM

CC(=O)NC(CC(C)C)C(=O)NC(Cc1ccccc1)C(=S)N1CCCC1 (configuration not stated)
inactive: A498 > 100 µM | TK-10 > 100 µM | CCRF-CEM > 100 µM | HCC 2998 > 100 µM | SK-MEL-5 > 100 µM | 786-0 > 100 µM | A549 > 100 µM | SK-MEL-28 > 100 µM | IGROV-1 > 100 µM | SNB-19 > 100 µM | SF-295 > 100 µM | M14 > 100 µM | OVCAR-4 > 100 µM | MOLT-4 > 100 µM | UACC-257 > 100 µM | HL-60 > 100 µM

CCOC(=O)C1=C(Nc2ccc(Br)cc2)OC/C1=N\NC(=O)c1ccccc1O
inactive: A498 > 47.3 µM | TK-10 > 34.8 µM | CCRF-CEM 9.66 µM | HCC 2998 20.3 µM | SK-MEL-5 49.7 µM | 786-0 15 µM | A549 4.06 µM | SK-MEL-28 > 81.3 µM | IGROV-1 6.46 µM | SNB-19 10.9 µM | SR 9.06 µM | SF-295 14.2 µM | M14 23.5 µM | OVCAR-4 26.2 µM | MOLT-4 11.4 µM | UACC-257 23 µM | HL-60 20.4 µM

C#CCN(C(=O)C(F)(F)F)c1ccc(C(=O)c2ccc(N(CC#C)C(=O)C(F)(F)F)cc2)cc1
inactive: TK-10 48.6 µM | CCRF-CEM 25.1 µM | HCC 2998 40.9 µM | SK-MEL-5 > 100 µM | 786-0 34.1 µM | A549 84.9 µM | SK-MEL-28 35.3 µM | IGROV-1 33.1 µM | SNB-19 46.5 µM | SF-295 37.8 µM | M14 33.2 µM | OVCAR-4 28.7 µM | MOLT-4 15.1 µM | UACC-257 26.4 µM | HL-60 12.9 µM
